What all share (assay type): cell-based, mouse
In assay [1] the test system is Ocy454 cells. As to the kind of experiment: Immunoblotting of Ocy454 cell lysates (HDAC4/5, CRTC2, SIK2 phosphorylation and localisation).
Assay [2] deals with Ocy454 cells. The experiment in a line: Gene expression in Ocy454 cells by RT-qPCR. The note with it: FIG. 5E.
Assay [3] has as its system Ocy454 cells. As to the kind of experiment: Immunoblotting of Ocy454 cell lysates (HDAC4/5, CRTC2, SIK2 phosphorylation and localisation). The note with it: 10 uM, 90 minutes, compared to DMSO control; FIGS. 17 to 19. The method, then: The Ocy454 osteocyte cell line was treated for 90 minutes with the indicated compound at 10 uM dose (FIG. 17). Phospho-HDAC4 S246 levels were monitored by immunoblotting (top band) compared to DMSO control.
For all experiments, a single cell subclone of Ocy454 cells (17, 18) was used. Cells were passages in alpha-MEM supplemented with 10% heat-inactivated fetal bovine serum and 1% antibiotics (penicillin/streptomycin, Fungizone) at 33° C. with 5% CO2. Cells were plated at 50,000 cells/ml and allowed to reach confluency at 33° C. (typically in 2-3 days). At this point, cells were transferred to 37° C. for subsequent analysis. For immunoblotting, cells were always analyzed after culture at 37° C. for 7 days. For gene expression analysis, cells were analyzed after culture at 37° C. for 14 days. Mycoplasma contamination was ruled out by PCR. Cells were routinely assayed for SOST expression at 37° C. and examined for osteocytic morphology. […]

Assay [4] concerns Ocy454 cells. The experiment in a line: Gene expression in Ocy454 cells by RT-qPCR. As to conditions: 0.5 μM, 3.5 hours; FIG. 21. The method, then:
In FIG. 21, Ocy454 cells (osteocyte cell line, also known at 6-9 cells) were cultured at 37° C. for 2 weeks to permit osteocyte differentiation. The cells were then treated with the indicated compound (0.5 μM) for 3.5 hours, and gene expression was analyzed by RT-qPCR. SOST expression was reduced by the indicated compounds. RANKL expression was increased by the indicated compounds. […] Therefore, these changes in gene expression may be due to on-target effects of the indicated compound.
For all experiments, a single cell subclone of Ocy454 cells (17, 18) was used. Cells were passages in alpha-MEM supplemented with 10% heat-inactivated fetal bovine serum and 1% antibiotics (penicillin/streptomycin, Fungizone) at 33° C. with 5% CO2. Cells were plated at 50,000 cells/ml and allowed to reach confluency at 33° C. (typically in 2-3 days). At this point, cells were transferred to 37° C. for subsequent analysis. For immunoblotting, cells were always analyzed after culture at 37° C. for 7 days. For gene expression analysis, cells were analyzed after culture at 37° C. for 14 days. Mycoplasma contamination was ruled out by PCR. Cells were routinely assayed for SOST expression at 37° C. and examined for osteocytic morphology.
Total RNA was extracted from cultured cells using RNeasy (Qiagen, Venlo, Netherlands) following the manufacturer's instructions. For long bone RNA isolation, mice were sacrificed and both femurs were rapidly dissected on ice. Soft tissue was removed and epiphyses cut. Bone marrow cells were then removed by serial flushing with ice-cold PBS. TRIzol (Life Technologies) was added and sampled were frozen at −80C and then homogenized. RNA was then extracted per the manufacturer's instructions, and further purified on RNeasy microcolumns prior to cDNA synthesis. RNA with A260/280 ratio <1.7 was not used for downstream analysis. For cDNA synthesis, 1 μg RNA was used in synthesis reactions according to the instructions of the manufacturer (Primescript RT, Takara). SYBR Green-based qPCR detection was performed using FastStart Universal SYBR Green (Roche, Basel, Switzerland) on a StepOne Plus (Applied Biosystems, Carlsbad, CA) thermocycler.

The test system of assay [5] is Ocy454 cells. The experiment in a line: cAMP radioimmunoassay. The note with it: 20 minutes; FIG. 14B. As for the experimental part:
Cells, in 96 well plates, were treated with indicated ligands for 20 minutes at room temperature in the presence of the phosphodiesterase inhibitor 3-isobutyl-1-methylxanthine (IBMX, Sigma I5879, 2 mM). The medium was then removed and cells were lysed in 50 mM HCl and transferred to −80C. Thawed lysates were diluted 1:5 with dH2O, and an 10 μl aliquot was assessed for cAMP content by radioimmunoassay using ^125I-cAMP analog as a tracer and unlabeled cAMP to generate a standard curve.

In the case of `C=C1[C@@H](O)[C@@H]2O[C@]3(CC[C@H](/C=C/[C@@H](C)[C@@H]4CC(C)=C[C@@]5(O[C@H](C[C@@](C)(O)C(=O)O)CC[C@H]5O)O4)O3)CC[C@H]2O[C@@H]1[C@@H](O)C[C@H](C)[C@H]1O[C@@]2(CCCCO2)CC[C@H]1C` [okadaic acid, reference compound], the “block of PTH-mediated decreased HDAC4/5 phosphorylation or SOST suppression” value with Ocy454 cells [1] (okadaic acid 300 nM plus PTH, FIGS. 13B and 13C) is “did not block PTH-mediated decreased HDAC4/5 phosphorylation or SOST suppression”.
Regarding `COc1ccc(N2C(=O)N(c3c(C)cccc3C)Cc3cnc(Nc4ccc(N5CCN(C)CC5)c(OC)c4)nc32)c(OC)c1` [YKL-04-114], the “dose of optimal efficacy at the level of gene expression” value in the assay with Ocy454 cells [2] (4 hours) was roughly 0.5 µM. For the same molecule, in the assay with Ocy454 cells [2], the RANKL expression entry is listed as “RANKL up-regulation”; the SOST expression entry was “rapid and potent SOST suppression”. Also, the “Phospho-HDAC4 S246 levels” value in the assay with Ocy454 cells [3] is listed as “showed the most clear results across multiple replicates”. Besides, in the assay on Ocy454 cells [1] (60 minutes, FIG. 5C), the “dose of optimal efficacy at the level of HDAC4/5 dephosphorylation” value is roughly 1 µM. In addition, in the assay on Ocy454 cells [1] (FIGS. 5B and 5C), the HDAC4/5 phosphorylation result is “rapid, dose-dependent decreases in HDAC4/5 phosphorylation”. Besides, in the assay on Ocy454 cells [4], the RANKL expression result was “most active in these experiments at reducing SOST and increasing RANKL”; the SOST expression result is given as “most active in these experiments at reducing SOST”. Further, the cAMP levels result in the assay with Ocy454 cells [5] is “without increasing cAMP levels”.

Values taken from US12121521B2, “Uses of salt-inducible kinase (SIK) inhibitors for treating osteoporosis” (The General Hospital Corporation, priority 2016, dated 2024).
